Patent US8815830B2, “Nucleosides with antiviral and anticancer activity” (Regents of the University of Minnesota, priority 2004, dated 2014)

Tested on: CCRF-CEM cells
Test: Test C: anti-cancer assay, CCRF-CEM cell viability by MTS reagent
Assay type: cell-based, human
Details: 48 hr incubation at 37° C., MTS reagent 4 hr, absorbance at 490 nm, triplicate
Description: The anti-cancer properties of the compounds of the invention can be evaluated using the following assay.
CCRF-CEM cells were grown in medium containing RPMI 1640 supplemented with 10% heat-inactivated fetal bovine serum, penicillin (124 units/ml of medium) and streptomycin (0.125 mg/ml of medium). A stock solution of […] was made using Trypan Blue Dye Exclusion Method as a means of counting the cells. The following concentrations of test compounds were made: 250, 200, 100, 10, 1, 0.1, 0.01 and 0.001 μM. The cell stock (50 μl, 5×10^4 cells) was incubated with 50 μl of each of the compounds in triplicate in a 96-well plate. The cells were incubated with the compound at 37° C. in a 10% CO2-90% air environment for 48 hr. A negative control was also done where the cells were incubated in drug-free medium.
Cell viability was determined by adding 20 μl of MTS reagent and incubating the cells for 4 hr after which the absorbance was found at 490 nm.

For `Nc1ncnc2c1ncn2[C@@H]1O[C@H](CO)[C@@H](O)[C@@H]1O` [Ara-A, 9-beta-D-arabinofuranosyladenosine], the IC50 was 384 ± 134 µM.
